Data reported in patent publication US20250340561A1, “QUINAZOLINE COMPOUND FOR INDUCING DEGRADATION OF G12D MUTANT KRAS PROTEIN” (Astellas Pharma Inc., priority 2021, published 2025).
Counter-ions that a name gives are not always drawn. Like-named read-outs stand apart in the source and are kept apart here.

Legend:
[1] = system: phosphorylation of ERK (Thr202/Tyr204); test: Test Example 2: ERK phosphorylation inhibition action in AsPC-1, Cell ELISA; type: cell-based, human; conditions: AsPC-1 cells, 0% = 1 μM trametinib
Description: Test Example 2: Evaluation of ERK Phosphorylation Inhibition Action on Human G12D Mutant KRAS-Positive Pancreatic Cancer Line AsPC-1
The ERK phosphorylation inhibition action of test compounds was evaluated by measuring phosphorylation of the 202th threonine (Thr202) and the 204th tyrosine (Tyr204) of ERK located downstream of the KRAS signal by Cell ELISA.
AsPC-1 cells were seeded on a 384-well plate (from Greiner bio-one) at 36 μL/well to give 2.0×10^4 cells per well. As for the cell culture conditions, a RPMI 1640 medium containing 10% fetal bovine serum was used in the presence of 5% CO2 at 37° C.
The next day, the test compounds (6 points having final concentrations in the range of 10 μM to 3.0 nM), trametinib (MEK inhibitor) of a final concentration of 1 μM as a positive control and DMSO, which was the solvent for the test compounds, as a negative control were diluted 100-fold with a fresh medium and were added at 4 μL per well. The cells were then cultured for 24 hours. After culturing, a 30% glyoxal solution (40% glyoxal [from Nacalai Tesque] was diluted with PBS) was quickly added at 30 μL per well, and the plate was allowed to stand for 90 minutes at room temperature to thus immobilize the cells. Then, the plate was centrifuged to remove the supernatant (using a centrifugal dehydrator machine, the supernatant was removed by the same method hereinafter), and 0.1% Triton X-100-containing PBS was added at 20 μL per well. After allowing to stand for 10 minutes at room temperature, the supernatant was removed by centrifugation, and the same operation was further repeated. Next, 0.5% SDS-containing PBS was added at 20 μL per well, and after allowing to stand at room temperature for 30 minutes, the supernatant was removed by centrifugation. Subsequently, a blocking solution (Intercept Blocking Buffer) was added at 20 μL per well, and the plate was allowed to stand for 1 hour at room temperature. The supernatant was removed by centrifugation, and an ERK (Thr202/Tyr204) phosphorylation antibody (Phospho-p44/42 MAPK (Erk 1/2) (Thr202/Tyr204) (D13.14.4E) XP Rabbit mAb; from Cell Signaling Technology) diluted 2,500-fold with a blocking solution was added at 10 or 15 μL per well as a primary antibody. The plate was allowed to stand at 4° C. overnight.
The next day, the plate was centrifuged to remove the supernatant. 0.05% Tween-20-containing PBS was added at 50 μL per well, and the supernatant was removed by centrifugation to thus wash each well. The washing was performed three times in total. After washing, Goat anti-Rabbit IgG H&L (IRDye 800CW) diluted 1,000-fold with a blocking solution was added at […] as a secondary antibody, and the plate was allowed to stand for 1 hour at room temperature. The plate was centrifuged to remove the supernatant, and each well was washed three times with 0.05% Tween-20-containing PBS in the same manner as after the primary antibody reaction. After removing the supernatant by centrifuging the plate, the plate was dried as it was with air at room temperature for 3 hours or more, and the 800-nm fluorescent signals were measured with Aerius.
With the signaling value at the time of addition of DMSO taken as 100% and with the signaling value at the time of addition of 1 μM trametinib taken as 0%, the 50% inhibition values (IC50) were calculated by Sigmoid-Emax model nonlinear regression analysis. The molecular weights of the test compounds were calculated as the molecular weights of the dihydrochloride for Example No. 22, the trihydrochlorides for Example Nos. 2-7, 9-12, 14-18 and 30, the tetrahydrochlorides for Example Nos. 19 and 46, the pentahydrochloride for Example No. 21 and the free forms forming no salt for the remaining Example Nos. The results for some test compounds of the formula (I) are shown in Table 3.

[2] = system: human G12D mutant KRAS-positive pancreatic cancer line AsPC-1; test: Test Example 3: non-anchorage-dependent cell growth inhibition, spheroid 3D cell culture; type: cell-based; conditions: AsPC-1 spheroid 3D culture, 6 days, CellTiter Glo 2.0
Description: Test Example 3: Evaluation of Non-Anchorage-Dependent Cell Growth Inhibition Action on Human G12D Mutant KRAS-Positive Pancreatic Cancer Line AsPC-1
The non-anchorage-dependent cell growth inhibition action of test compounds was evaluated by spheroid 3D cell culture.
AsPC-1 cells were seeded on a low-cell-adhesive round bottom 384-well plate (PrimeSurface: from Sumitomo Bakelite) at 36 μL/well to give 5×10^2 cells per well. The cell culture was performed under the same conditions as in the Test Example 2.
The next day, the test compounds (6 points having final concentrations in the range of 10 μM to 3.0 nM) and DMSO, which was the solvent for the test compounds, as a negative control were diluted 100-fold with a fresh medium and were added at 4 μL per well. After culturing in the presence of […] at 37° C. for 6 days, CellTiter Glo 2.0 (from Promega) was added at 20 μL per well. After stirring with a plate mixer (from FINEPCR) at normal temperature for 1 hour, the luminescent signals were measured with ARVO X3 (from PerkinElmer).
With the signaling value in treatment with DMSO taken as […] and with the signaling value in the medium alone without cells taken as […], the […] inhibition values (IC50) were calculated by Sigmoid-Emax model nonlinear regression analysis. The molecular weights of the test compounds were calculated as the molecular weights of the dihydrochloride for Example No. 22, the trihydrochlorides for Example Nos. 2-7, 9-12, 14-18 and 30, the tetrahydrochlorides for Example Nos. 19 and 46, the pentahydrochloride for Example No. 21 and the free forms forming no salt for the remaining Example Nos. The results for some test compounds of the formula (I) are shown in Table 4.

| Structure (SMILES) | IC50 ([1]; Homo sapiens, ASPC1, 24 h) | IC50 ([2]; Homo sapiens, ASPC1, 144 h) | other results |
| --- | --- | --- | --- |
| Cc1c(F)cc2[nH]ncc2c1-c1c(C2CC2)cc2c(N3C[C@@H]4C[C@H]3CN4)nc(OC3CCOCC3)nc2c1OCc1ccc(-c2cn([C@H](C(=O)N3C[C@H](O)C[C@H]3C(=O)N[C@@H](CO)c3ccccc3)C(C)C)nn2)cc1 (atropisomer, axis not shown) [Example 14] | 63 nM | 153 nM |  |
| Cc1ncsc1-c1ccc([C@H](CO)NC(=O)[C@@H]2C[C@@H](O)CN2C(=O)[C@H](C(C)C)n2cc(-c3ccc(COc4c(-c5c(C)c(F)cc6[nH]ncc56)c(C5CC5)cc5c(N6C[C@@H]7C[C@H]6CN7)nc(OCC6(CO)CCOCC6)nc45)cc3)nn2)cc1 (atropisomer, axis not shown) [Example 36] | 31 nM | 24 nM |  |
| Cc1ncsc1-c1ccc([C@H](CO)NC(=O)[C@@H]2C[C@@H](O)CN2C(=O)[C@H](C(C)C)n2cc(-c3ccc(COc4c(-c5c(C)c(F)cc6[nH]ncc56)c(C5CC5)cc5c(N6C[C@@H]7C[C@H]6CN7)nc(O[C@H](C)[C@@H](C)O)nc45)cc3)nn2)cc1 (atropisomer, axis not shown) [Example 37] | 18 nM | 19 nM |  |
| Cc1ncsc1-c1ccc([C@H](CO)NC(=O)[C@@H]2C[C@@H](O)CN2C(=O)C(C(C)C)n2cc(-c3ccc(COc4c(-c5c(C)c(F)cc6[nH]ncc56)c(C5CC5)cc5c(N6C[C@@H]7C[C@H]6CN7)nc(OC6CCOCC6)nc45)cc3)cn2)cc1 (single isomer, unassigned) [Example 11] | 39 nM | 128 nM |  |
| Cc1ncsc1-c1ccc(C2(NC(=O)[C@@H]3C[C@@H](O)CN3C(=O)[C@@H](NC(=O)c3ccc(COc4c(-c5c(C)c(F)cc6[nH]ncc56)c(C5CC5)cc5c(N6C[C@@H]7C[C@H]6CN7)nc(OC6CCOCC6)nc45)cc3)C(C)C)CC2)cc1 [Example 1] | 89 nM | 190 nM |  |
| Cc1ncsc1-c1ccc(C2(NC(=O)[C@@H]3C[C@@H](O)CN3C(=O)[C@@H](NC(=O)c3ccc(COc4c(-c5c(C)c(F)cc6[nH]ncc56)c(C5CC5)cc5c(N6C[C@@H]7C[C@H]6CN7)nc(OC6CCOCC6)nc45)cn3)C(C)C)CC2)cc1 [Example 2] | 779 nM | 1410 nM |  |
| Cc1ncsc1-c1ccc([C@H](CO)NC(=O)[C@@H]2C[C@@H](O)CN2C(=O)[C@@H](NC(=O)c2ccc(COc3c(-c4c(C)c(F)cc5[nH]ncc45)c(C4CC4)cc4c(N5C[C@@H]6C[C@H]5CN6)nc(OC5CCOCC5)nc34)cc2)C(C)C)cc1 [Example 3] | 62 nM | 108 nM |  |
| Cc1ncsc1-c1ccc([C@H](CO)NC(=O)[C@@H]2C[C@@H](O)CN2C(=O)[C@H](C(C)C)N2Cc3cc(COc4c(-c5c(C)c(F)cc6[nH]ncc56)c(C5CC5)cc5c(N6C[C@@H]7C[C@H]6CN7)nc(OC6CCOCC6)nc45)ccc3C2=O)cc1 [Example 4] | 522 nM | 670 nM |  |
| CCOc1nc(N2C[C@@H]3C[C@H]2CN3)c2cc(C3CC3)c(-c3c(C)c(F)cc4[nH]ncc34)c(OCc3ccc(C(=O)N[C@H](C(=O)N4C[C@H](O)C[C@H]4C(=O)N[C@@H](CO)c4ccc(-c5scnc5C)cc4)C(C)C)cc3)c2n1 [Example 5] | 97 nM | 169 nM |  |
| Cc1ncsc1-c1ccc(C2(NC(=O)[C@@H]3C[C@@H](O)CN3C(=O)[C@H](C(C)C)n3cc(-c4ccc(COc5c(-c6c(C)c(F)cc7[nH]ncc67)c(C6CC6)cc6c(N7C[C@@H]8C[C@H]7CN8)nc(OC7CCOCC7)nc56)cc4)nn3)CC2)cc1 [Example 6] | 58 nM | 100 nM |  |
| Cc1ncsc1-c1ccc([C@H](CO)NC(=O)[C@@H]2C[C@@H](O)CN2C(=O)[C@H](C(C)C)n2cc(-c3ccc(COc4c(-c5c(C)c(F)cc6[nH]ncc56)c(C5CC5)cc5c(N6C[C@@H]7C[C@H]6CN7)nc(OC6CCOCC6)nc45)cc3)nn2)cc1 [Example 7, (4R)-1-[(2S)-2-(4-{4-[({6-cyclopropyl-4-[(1S,4S)-2,5-diazabicyclo[2.2.1]heptan-2-yl]-7-(6-fluoro-5-methyl-1H-indazol-4-yl)-2-[(oxan-4-yl)oxy]quinazolin-8-yl}oxy)methyl]phenyl}-1H-1,2,3-triazol-1-yl)-3-methylbutanoyl]-4-hydroxy-N-{(1R)-2-hydroxy-1-[4-(4-methyl-1,3-thiazol-5-yl)phenyl]ethyl}-L-prolinamide n hydrochloride] |  |  | IC50 ([1]; Homo sapiens, ASPC1, 24 h, read-out: IC50): 17 nM; IC50 ([2]; Homo sapiens, ASPC1, 144 h, read-out: IC50): 31 nM |
| Cc1ncsc1-c1ccc([C@H](CO)NC(=O)[C@@H]2C[C@@H](O)CN2C(=O)[C@H](C(C)C)n2cc(-c3ccc(COc4c(-c5c(C)c(F)cc6[nH]ncc56)c(C5CC5)cc5c(N6C[C@@H]7C[C@H]6CN7)nc(OC6CCOCC6)nc45)cc3)nn2)cc1 [Example 8, (4R)-1-[(2S)-2-(4-{4-[({6-cyclopropyl-4-[(1S,4S)-2,5-diazabicyclo[2.2.1]heptan-2-yl]-7-(6-fluoro-5-methyl-1H-indazol-4-yl)-2-[(oxan-4-yl)oxy]quinazolin-8-yl}oxy)methyl]phenyl}-1H-1,2,3-triazol-1-yl)-3-methylbutanoyl]-4-hydroxy-N-{(1R)-2-hydroxy-1-[4-(4-methyl-1,3-thiazol-5-yl)phenyl]ethyl}-L-prolinamide] |  |  | IC50 ([1]; 24 hours, read-out: IC50): 15 nM; IC50 ([2]; read-out: IC50): 23 nM |
| Cc1ncsc1-c1ccc([C@H](C)NC(=O)[C@@H]2C[C@@H](O)CN2C(=O)[C@H](C(C)C)n2cc(-c3ccc(COc4c(-c5c(C)c(F)cc6[nH]ncc56)c(C5CC5)cc5c(N6C[C@@H]7C[C@H]6CN7)nc(OC6CCOCC6)nc45)cc3)nn2)cc1 [Example 9] | 18 nM | 96 nM |  |
| Cc1ncsc1-c1ccc(CNC(=O)[C@@H]2C[C@@H](O)CN2C(=O)[C@H](C(C)C)n2cc(-c3ccc(COc4c(-c5c(C)c(F)cc6[nH]ncc56)c(C5CC5)cc5c(N6C[C@@H]7C[C@H]6CN7)nc(OC6CCOCC6)nc45)cc3)nn2)cc1 [Example 10] | 26 nM | 114 nM |  |
| Cc1c(F)cc2[nH]ncc2c1-c1c(C2CC2)cc2c(N3C[C@@H]4C[C@H]3CN4)nc(OC3CCOCC3)nc2c1OCc1ccc(-c2cn([C@H](C(=O)N3C[C@H](O)C[C@H]3C(=O)N[C@@H](CO)c3ccc(Br)cc3)C(C)C)nn2)cc1 [Example 12] | 37 nM | 112 nM |  |
